Experimental data from BindingDB's records for doi:10.1021/jm070574f (University of Copenhagen, 2007).

Molecular target: Neuronal acetylcholine receptor subunit alpha-7 (Homo sapiens, UniProt P36544)
Experiment: Antagonist activity at human alpha-7 nAChR in tsA201 cells coexpressed with Ric3 by FMP assay

Neuronal acetylcholine receptor subunit alpha-7, sequence (P36544 whole entry): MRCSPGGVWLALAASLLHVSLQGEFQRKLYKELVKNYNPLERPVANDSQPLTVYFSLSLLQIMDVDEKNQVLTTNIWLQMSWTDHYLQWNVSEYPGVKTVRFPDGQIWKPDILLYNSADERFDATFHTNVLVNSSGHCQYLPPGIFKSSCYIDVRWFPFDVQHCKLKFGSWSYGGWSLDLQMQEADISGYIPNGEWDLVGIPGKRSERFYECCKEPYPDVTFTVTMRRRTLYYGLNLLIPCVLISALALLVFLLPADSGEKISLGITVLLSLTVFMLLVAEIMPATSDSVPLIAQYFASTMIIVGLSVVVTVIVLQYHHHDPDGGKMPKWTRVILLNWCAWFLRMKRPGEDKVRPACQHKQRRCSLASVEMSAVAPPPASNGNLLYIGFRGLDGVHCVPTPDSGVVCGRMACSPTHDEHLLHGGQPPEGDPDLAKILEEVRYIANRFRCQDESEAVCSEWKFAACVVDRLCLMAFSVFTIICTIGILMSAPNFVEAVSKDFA

CCN1C[C@]2(COC(=O)c3ccccc3-n3c(O)cc(C)c3O)CC[C@H](OC)[C@]34[C@@H]5C[C@H]6[C@H](OC)[C@@H]5[C@](O)(C[C@@H]6OC)[C@@](O)([C@H]13)[C@@H](OC)[C@H]24 [METHYLLYCACONITINE]
IC50: 8.3 nM
